Values of other authors, collected in patent publication US20080107726A1, “COMPOSITIONS COMPRISING BETA-ADRENERGIC RECEPTOR ANTAGONISTS AND DIURETICS” (priority 2006, published 2008).
Counter-ions that a name gives are not always drawn. Like-named read-outs stand apart in the source and are kept apart here.

- Solubility (in dichloromethane and 2-propanol): slightly soluble
- Solubility (in ethanol): sparingly soluble
- Solubility (in ethyl acetate, acetone, diethylether and heptane): practically insoluble
- Solubility (in methanol): soluble
- Solubility (in water): freely soluble
SMILES: COCCc1ccc(OCC(O)CNC(C)C)cc1 (racemic) [Metoprolol succinate, (±)-1-(isopropylamino)-3-[p-(2-methoxyethyl)phenoxy]-2-propanol succinate (2:1) (salt)]
